In patent US4110330A, “5'-Acetonylvincristine and related compounds” (priority 1977, dated 1978):
Where “and” joins values, the source holds several entries; their conditions need not be identical. Equal entries are not always repeated.

How the values were obtained:
[1] = system: experimental maliganancies; settings: background; cited from earlier work
[2] = system: Gardner lymphosarcoma (GLS); assay: Transplanted tumor GLS in mice, percent inhibition of tumor growth or percent prolongation of survival time; format: in vivo
Protocol: (§1) The compounds of this invention are antimitotic agents being active in tissue culture and against transplanted tumors in mice.
(§2) The following table -- Table 1 -- gives the results of several experiments in which mice bearing transplanted tumors were treated successfully with a compound of this invention. The following abbreviations are employed: Compound A is 5'-acetonylvincristine sulfate; B and C are the corresponding dehydrated hemiketal sulfate and free base; D is 4-desacetyl-5'-acetonylvincristine; GLS is Gardner lymphosarcoma; ROS is Ridgeway Osteogenic Sarcoma and CA755 is an adenocarcinoma. In the table, column 1 gives the compound designation; column 2, the abbreviation of the name of transplanted tumor; column 3, the dose level and the number of days that dosage was administered; and column 4, the percent inhibition of tumor growth or percent prolongation of survival time

[3] = system: Ridgeway Osteogenic Sarcoma (ROS); assay: Transplanted tumor ROS in mice, percent inhibition of tumor growth or percent prolongation of survival time; format: in vivo
Protocol: as §1, §2

[4] = system: CA755 (adenocarcinoma); assay: Transplanted tumor CA755 in mice, percent inhibition of tumor growth or percent prolongation of survival time; format: in vivo
Protocol: as §1, §2

[5] = 0.05 mg/kg × 9 days, marked *: not statistically significantly different from control
[6] = 0.3 mg/kg × 7 days, marked *: not statistically significantly different from control

## CCC1(O)CN2CCc3c([nH]c4ccccc34)C(C(=O)OC)(c3cc4c(cc3OC)N(C)C3C(O)(C(=O)OC)CC5(CC)C=CCN6CCC43C65)CC(C2)C1O (centres unmarked) [4-desacetoxy-3'-hydroxyvinblastine]
[1]
  activity in the treatment of experimental malignancies in animals: active

## CC[C@]1(O)C[C@H]2CN(CCc3c([nH]c4ccccc34)[C@@](C(=O)OC)(c3cc4c(cc3OC)N(C)[C@@H]3[C@]45CCN4CC=C[C@@](CC)(C[C@]3(O)C(=O)OC)[C@H]45)C2)C1 [4-desacetoxyvinblastine]
[1]
  activity in the treatment of experimental malignancies in animals: active

## CCC12CC3CN(CCc4c([nH]c5ccccc45)C(C(=O)OC)(c4cc5c(cc4OC)N(C=O)C4C(O)(C(=O)OC)C(OC(C)=O)C6(CC)C=CCN7CCC54C76)C3)C1C=C(C)O2.O=S(=O)(O)O (centres unmarked) [B, 2",3"-dehydro-5'-acetonylvincristine 1",2"-hemiketal]
[2]; [5]
  percent inhibition of tumor growth or percent prolongation of survival time: 13%
[2]; 0.1 mg/kg × 7 days
  percent inhibition of tumor growth or percent prolongation of survival time: 0%
[2]; 0.1 mg/kg × 9 days, marked *: not statistically significantly different from control
  percent inhibition of tumor growth or percent prolongation of survival time: 21%
[2]; 0.2 mg/kg × 7 days, marked *: not statistically significantly different from control
  percent inhibition of tumor growth or percent prolongation of survival time: 21%
[2]; 0.2 mg/kg × 9 days, marked *: not statistically significantly different from control
  percent inhibition of tumor growth or percent prolongation of survival time: 8%
[2]; [6]
  percent inhibition of tumor growth or percent prolongation of survival time: 22% and 37%
[2]; 0.3 mg/kg × 9 days
  percent inhibition of tumor growth or percent prolongation of survival time: 36%
[2]; 0.5 mg/kg × 7 days
  percent inhibition of tumor growth or percent prolongation of survival time: 54% and 39% and 59%
[2]; 0.5 mg/kg × 9 days
  percent inhibition of tumor growth or percent prolongation of survival time: 71%
[2]; 1.0 mg/kg × 7 days
  percent inhibition of tumor growth or percent prolongation of survival time: 100% and 76% and 96%
[2]; 1.0 mg/kg × 9 days
  percent inhibition of tumor growth or percent prolongation of survival time: 93%
[2]; 5.0 mg/kg × 7 days
  percent inhibition of tumor growth or percent prolongation of survival time: 100%
[3]; 0.1 mg/kg × 10 days
  percent inhibition of tumor growth or percent prolongation of survival time: 39%
[3]; 0.2 mg/kg × 10 days
  percent inhibition of tumor growth or percent prolongation of survival time: 26%
[3]; 0.3 mg/kg × 10 days, marked *: not statistically significantly different from control
  percent inhibition of tumor growth or percent prolongation of survival time: 14%
[3]; 0.5 mg/kg × 10 days, marked *: not statistically significantly different from control
  percent inhibition of tumor growth or percent prolongation of survival time: 0%
[3]; 1.0 mg/kg × 10 days, marked *: not statistically significantly different from control
  percent inhibition of tumor growth or percent prolongation of survival time: 0%

## CCC12CC3CN(CCc4c([nH]c5ccccc45)C(C(=O)OC)(c4cc5c(cc4OC)N(C=O)C4C(O)(C(=O)OC)C(OC(C)=O)C6(CC)C=CCN7CCC54C76)C3)C1C=C(C)O2 (centres unmarked) [C, 2",3"-dehydro-5'-acetonylvincristine 1",2"-hemiketal]
[2]; 0.5 mg/kg × 7 days
  percent inhibition of tumor growth or percent prolongation of survival time: 57%
[2]; 0.5 mg/kg × 7 days, marked *: not statistically significantly different from control
  percent inhibition of tumor growth or percent prolongation of survival time: 2%
[2]; 1.0 mg/kg × 7 days
  percent inhibition of tumor growth or percent prolongation of survival time: 100%
[2]; 1.0 mg/kg × 7 days, marked *: not statistically significantly different from control
  percent inhibition of tumor growth or percent prolongation of survival time: 5%
[2]; 5.0 mg/kg × 7 days
  percent inhibition of tumor growth or percent prolongation of survival time: 100%

## CCC1(O)CC2CN(CCc3c([nH]c4ccccc34)C(C(=O)OC)(c3cc4c(cc3OC)N(C=O)C3C(O)(C(=O)OC)C(OC(C)=O)C5(CC)C=CCN6CCC43C65)C2)C1CC(C)=O.O=S(=O)(O)O (centres unmarked) [Compound A, 5'-acetonylvincristine sulfate]
[2]; [5]
  percent inhibition of tumor growth or percent prolongation of survival time: 8%
[2]; 0.3 mg/kg × 7-9 days
  percent inhibition of tumor growth or percent prolongation of survival time: 39%
[2]; 0.3 mg/kg × 7-9 days, marked *: not statistically significantly different from control
  percent inhibition of tumor growth or percent prolongation of survival time: 13%
[2]; 0.5 mg/kg × 7-9 days
  percent inhibition of tumor growth or percent prolongation of survival time: 49% and 65%
[2]; 1.0 mg/kg × 7-9 days
  percent inhibition of tumor growth or percent prolongation of survival time: 81% and 86%
[3]; 0.05 mg/kg × 10 days
  toxicity: TOXIC
[3]; 0.1 mg/kg × 10 days
  percent inhibition of tumor growth or percent prolongation of survival time: 0%
[3]; 0.2 mg/kg × 10 days
  percent inhibition of tumor growth or percent prolongation of survival time: 60%
[3]; 0.3 mg/kg × 10 days
  percent inhibition of tumor growth or percent prolongation of survival time: 34%
[3]; 0.5 mg/kg × 10 days
  toxicity: TOXIC
[3]; 1.0 mg/kg × 10 days
  toxicity: TOXIC
[4]; 0 mg/kg × 8 days (so in the source)
  percent inhibition of tumor growth or percent prolongation of survival time: 39%
[4]; 0.3 mg/kg × 8 days, marked *: not statistically significantly different from control
  percent inhibition of tumor growth or percent prolongation of survival time: 21%
[4]; 0.5 mg/kg × 8 days
  percent inhibition of tumor growth or percent prolongation of survival time: 39%
[4]; 5.0 mg/kg × 8 days
  percent inhibition of tumor growth or percent prolongation of survival time: 34%

## CCC1(O)CC2CN(CCc3c([nH]c4ccccc34)C(C(=O)OC)(c3cc4c(cc3OC)N(C=O)C3C(O)(C(=O)OC)C(O)C5(CC)C=CCN6CCC43C65)C2)C1CC(C)=O (centres unmarked) [D, 4-desacetyl-5'-acetonylvincristine]
[2]; [6]
  percent inhibition of tumor growth or percent prolongation of survival time: 0%
[2]; 0.5 mg/kg × 7 days
  percent inhibition of tumor growth or percent prolongation of survival time: 37% and 26%
[2]; 1.0 mg/kg × 7 days
  percent inhibition of tumor growth or percent prolongation of survival time: 100% and 62%

## CC[C@]1(O)C[C@@H]2CN(CCc3c([nH]c4ccccc34)[C@@](C(=O)OC)(c3cc4c(cc3OC)N(C)[C@H]3[C@@](O)(C(=O)OC)[C@H](OC(C)=O)[C@]5(CC)C=CCN6CC[C@]43[C@@H]65)C2)C1 [VLB, vincaleukoblastine]
[1]
  activity in the treatment of experimental malignancies in animals: active

## CCC1CC2CN(CCc3c([nH]c4ccccc34)C(C(=O)OC)(c3cc4c(cc3OC)N(C)C3C(O)(C(=O)OC)C(OC(C)=O)C5(CC)C=CCN6CCC43C65)C2)C1 (centres unmarked) [deoxy VLB "A"]
[1]
  activity in the treatment of experimental malignancies in animals: active

## CCC1(O)CN2CCc3c([nH]c4ccccc34)C(C(=O)OC)(c3cc4c(cc3OC)N(C)C3C(O)(C(=O)OC)C(OC(C)=O)C5(CC)C=CCN6CCC43C65)CC(O)(C2)C1 (centres unmarked) [leurocolombine]
[1]
  activity in the treatment of experimental malignancies in animals: active

## CC[C@]1(O)C[C@H]2CN(CCc3c([nH]c4ccccc34)[C@@](C(=O)OC)(c3cc4c(cc3OC)N(C=O)[C@H]3[C@@](O)(C(=O)OC)[C@H](OC(C)=O)[C@]5(CC)C=CCN6CC[C@]43[C@@H]65)C2)C1 [leurocristine]
[1]
  activity in the treatment of experimental malignancies in animals: active

## CC[C@]12CN3CCc4c([nH]c5ccccc45)[C@@](C(=O)OC)(c4cc5c(cc4OC)N(C=O)[C@H]4[C@@](O)(C(=O)OC)[C@H](OC(C)=O)[C@]6(CC)C=CCN7CC[C@]54[C@@H]76)C[C@@H](C3)[C@H]1O2 [leuroformine, N-formylleurosine]
[1]
  activity in the treatment of experimental malignancies in animals: active

## CC[C@@]1(O)C[C@@H]2CN(CCc3c([nH]c4ccccc34)[C@@](C(=O)OC)(c3cc4c(cc3OC)N(C)[C@H]3[C@@](O)(C(=O)OC)[C@H](OC(C)=O)[C@]5(CC)C=CCN6CC[C@]43[C@@H]65)C2)C1 [leurosidine]
[1]
  activity in the treatment of experimental malignancies in animals: active

## CC[C@]12CN3CCc4c([nH]c5ccccc45)[C@@](C(=O)OC)(c4cc5c(cc4OC)N(C)[C@H]4[C@@](O)(C(=O)OC)[C@H](OC(C)=O)[C@]6(CC)C=CCN7CC[C@]54[C@@H]76)C[C@H](C3)[C@H]1O2 [leurosine]
[1]
  activity in the treatment of experimental malignancies in animals: active

## CCC1(O)CN2CCc3c([nH]c4ccccc34)C(C(=O)OC)(c3cc4c(cc3OC)N(C)C3C(O)(C(=O)OC)C(OC(C)=O)C5(CC)C=CCN6CCC43C65)CC(C2)C1O (centres unmarked) [vincadioline]
[1]
  activity in the treatment of experimental malignancies in animals: active
